Experimental data reported in patent publication US8227491B2, “5-(3,4-dichloro-phenyl)-N-(2-hydroxy-cyclohexyl)-6-(2,2,2-trifluoro-ethoxy)-nicotinamide and salts thereof” (Hoffmann-La Roche Inc., priority 2009, dated 2012).

Key:
[1] = target: T1, human cannabis CB2 receptor (Homo sapiens, UniProt P34972); test: CB2 receptor affinity, [3H]-CP-55,940 radioligand binding on HEK cell membranes; conditions: Ki calculated from IC50 (Cheng-Prusoff)
T1 construct: expressed in transfected cells; host or cells: human embryonic kidney (HEK) cells, Semliki Forest Virus system, membrane preparations
T1 sequence (P34972 whole entry): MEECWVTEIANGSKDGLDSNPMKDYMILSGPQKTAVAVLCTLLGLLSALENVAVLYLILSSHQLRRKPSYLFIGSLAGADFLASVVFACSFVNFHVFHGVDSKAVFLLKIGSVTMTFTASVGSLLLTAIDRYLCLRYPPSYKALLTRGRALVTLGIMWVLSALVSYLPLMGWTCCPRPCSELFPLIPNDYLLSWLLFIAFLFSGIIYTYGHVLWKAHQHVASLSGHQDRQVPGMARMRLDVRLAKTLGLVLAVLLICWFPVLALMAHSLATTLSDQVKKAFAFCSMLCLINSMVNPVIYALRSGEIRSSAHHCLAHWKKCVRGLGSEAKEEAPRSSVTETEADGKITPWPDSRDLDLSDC
Procedure: (§1) The affinity of the compounds of the invention for cannabinoid CB2 receptors was determined using membrane preparations of human embryonic kidney (HEK) cells in which the human cannabis CB2 receptor is transiently transfected using the Semliki Forest Virus system in conjunction with [3H]-CP-55,940 as radioligand. After incubation of freshly prepared cell membrane preparation with the [3H]-ligand, with or without addition of compounds of the invention, separation of bound and free ligand was performed by filtration over glass fiber filters. Radioactivity on the filter was measured by scintillation counting.
(§2) Ki values were calculated from the IC50 using the Cheng-Prusoff equation.

HDL cholesterol levels = test: Effects on plasma lipid levels in hamsters; format: in vivo; conditions: male hamsters, 30 mg/kg p.o. once daily for five days, blood 2 hours after final treatment, 4 hour-fasted
Procedure: Efficacy of compounds in modulating plasma lipid levels was determined in hamsters after 5 days of daily administration of compounds. Male hamsters of 6-8 weeks of age were used in the studies. After one week of acclimation, blood samples were collected from 4 hour-fasted animals for plasma lipid determination. Animals were then assigned to treatment groups based on HDL-cholesterol levels. Compounds were administered by gavage, once daily for five days. Control animals received vehicle alone. Blood was collected on day five from 4 hour-fasted hamsters, 2 hours after a final treatment, for plasma lipid analysis. Total cholesterol, HDL-cholesterol, LDL-cholesterol, and triglycerides were determined using colorimetric enzymatic assays (Roche Diagnostic GmbH, Mannheim, Germany). HDL-cholesterol was also determined after selective precipitation of HDL from plasma by standard procedures.

[2] = target: T2, human cannabis CB1 receptor (Homo sapiens, UniProt P21554); test: CB1 receptor affinity, [3H]-CP-55,940 radioligand binding on HEK cell membranes; conditions: Ki calculated from IC50 (Cheng-Prusoff)
T2 construct: expressed in transfected cells; host or cells: human embryonic kidney (HEK) cells, Semliki Forest Virus system, membrane preparations
T2 sequence (P21554 whole entry): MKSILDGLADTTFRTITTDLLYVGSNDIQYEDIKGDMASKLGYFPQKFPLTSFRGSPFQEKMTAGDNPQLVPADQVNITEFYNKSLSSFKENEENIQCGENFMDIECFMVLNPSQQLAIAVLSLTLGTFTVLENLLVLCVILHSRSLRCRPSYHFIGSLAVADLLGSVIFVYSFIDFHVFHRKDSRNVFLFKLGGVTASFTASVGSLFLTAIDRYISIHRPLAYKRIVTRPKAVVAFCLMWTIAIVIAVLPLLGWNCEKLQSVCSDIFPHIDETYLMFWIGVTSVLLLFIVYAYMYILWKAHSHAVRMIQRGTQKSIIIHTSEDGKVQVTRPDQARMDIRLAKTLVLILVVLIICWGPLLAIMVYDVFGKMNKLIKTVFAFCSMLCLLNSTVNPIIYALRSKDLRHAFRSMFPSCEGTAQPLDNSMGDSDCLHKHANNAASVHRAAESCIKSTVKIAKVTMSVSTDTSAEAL
Procedure: as §1, with “cannabinoid” for “cannabinoid CB2”, “CB1” for “CB2”
as §2

Q: What does the source list for `O=C(N[C@H]1CCCC[C@H]1O)c1cnc(OCC(F)(F)F)c(-c2ccc(Cl)c(Cl)c2)c1` [5-(3,4-Dichloro-phenyl)-N-((1S,2R)-2-hydroxy-cyclohexyl)-6-(2,2,2-trifluoro-ethoxy)-nicotinamide]?
A: Ki [1]: > 10 µM; HDL Cholesterol levels [as % compared to control] @ 30 mg/kg p.o. of compound (HDL cholesterol levels): +121.9 ± 21.0%; Ki [2]: > 10 µM

Q: What does the source list for `O=C(N[C@@H]1CCCC[C@H]1O)c1cnc(OCC(F)(F)F)c(-c2ccc(Cl)c(Cl)c2)c1` [5-(3,4-dichloro-phenyl)-N-((1R,2R)-2-hydroxy-cyclohexyl)-6-(2,2,2-trifluoro-ethoxy)-nicotinamide]?
A: Ki [1]: > 10 µM; HDL Cholesterol levels [as % compared to control] @ 30 mg/kg p.o. of compound (HDL cholesterol levels): +77.9 ± 11.1%; Ki [2]: 1.3 µM

Q: How did the Ki [1] turn out when `O=C(N[C@@H]1CCCC[C@H]1O)c1cnc(OCC(F)(F)F)c(-c2ccc(Cl)cc2)c1` [5-(4-Chloro-phenyl)-N-((1R,2R)-2-hydroxy-cyclohexyl)-6-(2,2,2-trifluoro-ethoxy)-nicotinamide, reference compound] was run?
A: > 10 µM

Q: And the “HDL Cholesterol levels [as % compared to control] @ 30 mg/kg p.o. of compound” value (HDL cholesterol levels)?
A: +103.8 ± 14.7%

Q: What about the Ki [2] of the same compound?
A: 0.028 µM
